Laboratory results published in US9220261B1, “Volatile blends and the effects thereof on the navel orangeworm moth” (The United States of America, as represented by the …, priority 2010, dated 2015).

Legend:
NOW [1] = assay: Field trapping screening studies of individual CONO; format: in vivo, Amyelois transitella; conditions: September 2 to Oct. 5, 2009, almond and pistachio orchards
Description: FAB.x and GAVA.x blends were mixed with another component, conophthorin (CONO). CONO increased the efficacy of the blends in the FAB4 and GAVA series. This was somewhat unexpected as CONO alone is not attractive to NOW. […] Subsequent field trapping screening studies of individual CONO between September 2 and Oct. […] Virgin female NOW-baited traps at the same time indicated pressures of NOW in the orchards.

NOW [2] = assay: Electroantennographic studies of CONO; parameters: species or system Amyelois transitella; conditions: lower than the positive standard
female NOW antennae = assay: Electroantennogram (EAG) bioassay, female NOW antennae; parameters: species or system Amyelois transitella; conditions: Example 1; 50 μg on disc (almond meal 3.1 mg); raw response minus NegCtrl
Experimental: The EAG experiments were performed by similar protocols described previously (Beck et al., 2009, supra). The antennae of sexed NOW were excised, positioned on a fork electrode using electrode gel, and connected to an IDAC-4 acquisition controller and electrophysiological amplifier using PC-based software (Syntech, Kirchzarten, Germany). The antennae were humidified with a stream of purified air bubbled through distilled water at a flow rate of 200 ml/min. The individual compounds for EAG analysis (50 μg; 10 μl of a 5 μg/μl solution in pentane) were loaded onto oven-dried 0.64 cm assay discs, allowed to air-dry for five min, inserted into 14.6 cm Pasteur pipets and the ends temporarily capped with parafilm. […] For almond meal analyses, 3.1 mg was placed in a Pasteur pipet containing very lightly packed glass wool. Negative control ([…]) discs were prepared using a similar method, but with 10 μl of pentane prior to solvent evaporation. Positive control (PosCtrl) discs were prepared using the major sex pheromone component (Z,Z)-11,13-hexadecadienal (50 μg, Suterra LLC, Bend, Oreg.). The pipets loaded with the individual compounds were attached via tubing to a stimulus controller unit (Syntech). The antennae were exposed to each compound by a two-second puff of air and the resulting response recorded. […]

For C[C@@H]1CCC[C@@]2(CCCO2)O1 [CONO, 7-methyl-1,6-dioxaspiro[4.5]decane], the “attraction of NOW in field trapping” value (NOW [1]) was “did not attract any NOW” and the electroantennographic activity (NOW [2]) was “mildly active”.

In the case of CC(=O)c1ccccc1 [acetophenone], the “EAG antennal response from female NOW, normalized” value (female NOW antennae) is reported as 397 μV.

With Oc1ccccc1 [phenol] the “EAG antennal response from female NOW, normalized” value (female NOW antennae) was 78 μV.
